Measurements taken from the supplement of paper PMC10307832.

Legend:
Experiment in all cases: relative viability (nuclei count vs DMSO), 5 days (fraction); higher = more cells survive
[1] = compound: CC(C)(C)c1cc(NC(=O)Nc2ccc(-c3cn4c(n3)sc3cc(OCCN5CCOCC5)ccc34)cc2)no1 [Quizartinib] + CC(=O)c1c(C)c2cnc(Nc3ccc(N4CCNCC4)cn3)nc2n(C2CCCC2)c1=O [Palbociclib] (partner 0.5 µM)
How it was run: (§1)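 After 5 days of treatment, lung cancer cells in 1536-well plates were fixed and stained in a single step (final 0.05% Triton X-100, 1% formaldehyde, 1 ug/ml Hoechst) and their nuclei counted on 4× images. Treatment had been applied by pin tool the day after seeding as one drug alone or as a fixed anchor-drug dose with five library-drug doses (not always all listed) in √10 steps. Relative viability is the nuclei count of treated wells divided by that of vehicle wells, and values are medians of duplicate plates.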

Quizartinib + Crizotinib = compound: CC(C)(C)c1cc(NC(=O)Nc2ccc(-c3cn4c(n3)sc3cc(OCCN5CCOCC5)ccc34)cc2)no1 [Quizartinib] + C[C@@H](Oc1cc(-c2cnn(C3CCNCC3)c2)cnc1N)c1c(Cl)ccc(F)c1Cl [Crizotinib] (partner 1 µM)
How it was run: as §1

YM155 + Bortezomib = compound: COCC[n+]1c2c(n(Cc3cnccn3)c1C)C(=O)c1ccccc1C2=O [YM155] + CC(C)C[C@H](NC(=O)[C@H](Cc1ccccc1)NC(=O)c1cnccn1)B(O)O [Bortezomib] (partner 0.002 µM)
How it was run: as §1

YM155 + Vorinostat = compound: COCC[n+]1c2c(n(Cc3cnccn3)c1C)C(=O)c1ccccc1C2=O [YM155] + O=C(CCCCCCC(=O)Nc1ccccc1)NO [Vorinostat] (partner 1 µM)
How it was run: as §1

| Cell Line | relative viability ([1]; first compound 0.003162 µM) | relative viability ([1]; first compound 0.01 µM) | relative viability ([1]; first compound 0.03162 µM) | relative viability ([1]; first compound 0.1 µM) | relative viability (Quizartinib + Crizotinib; first compound 0.001 µM) | relative viability (Quizartinib + Crizotinib; first compound 0.003162 µM) | relative viability (Quizartinib + Crizotinib; first compound 0.01 µM) | relative viability (Quizartinib + Crizotinib; first compound 0.03162 µM) | relative viability (Quizartinib + Crizotinib; first compound 0.1 µM) | relative viability (YM155 + Bortezomib; first compound 0.002 µM) | relative viability (YM155 + Bortezomib; first compound 0.006325 µM) | relative viability (YM155 + Bortezomib; first compound 0.02 µM) | relative viability (YM155 + Bortezomib; first compound 0.06325 µM) | relative viability (YM155 + Vorinostat; first compound 0.006325 µM) | relative viability (YM155 + Vorinostat; first compound 0.02 µM) | relative viability (YM155 + Vorinostat; first compound 0.06325 µM) | relative viability ([1]; first compound 0.001 µM) | relative viability (YM155 + Vorinostat; first compound 0.002 µM) |
| --- | --- | --- | --- | --- | --- | --- | --- | --- | --- | --- | --- | --- | --- | --- | --- | --- | --- | --- |
| ABC-1 | 0.71 | 0.842 | 0.769 | 0.823 | 0.922 | 0.799 | 1.22 | 0.527 | 1.3 | 0.271 | 0.4 | 0.241 | 0.209 | 1.03 | 0.373 | 0.303 |  |  |
| NCI-H2085 | 0.486 | 0.444 | 0.453 | 0.388 | 0.745 | 0.795 | 0.998 | 0.833 | 0.836 | 0.949 | 0.974 | 0.83 | 0.631 | 0.795 | 0.757 | 0.625 | 0.407 | 0.677 |
| NCI-H2087 | 0.225 | 0.316 | 0.218 | 0.229 | 0.717 | 0.685 | 0.883 | 0.767 | 0.863 | 0.872 | 0.76 | 0.867 | 0.783 | 0.759 | 0.55 | 0.44 | 0.233 | 0.667 |
| NCI-H2347 | 0.43 | 0.379 | 0.428 | 0.434 | 0.719 | 0.788 | 0.704 | 0.585 | 0.762 | 0.984 | 1.05 | 1.24 | 0.819 | 0.488 | 0.521 | 0.476 | 0.405 | 0.506 |
| HOP-62 | 0.357 | 0.526 | 0.459 | 0.349 | 0.881 | 0.98 | 1.11 | 1.11 | 0.86 | 0.737 | 0.752 | 0.763 | 0.696 | 0.595 | 0.727 | 0.577 | 0.438 | 0.516 |
| SW 1573 | 0.367 | 0.493 |  | 0.434 | 0.611 | 0.837 | 0.823 | 0.803 | 0.895 | 0.95 | 0.946 | 0.954 | 0.568 | 0.731 | 0.603 | 0.0728 | 0.367 | 0.698 |
| HCC-44 | 1.04 | 0.997 | 0.921 | 0.949 | 0.66 | 0.817 | 0.927 | 0.765 | 0.682 | 0.871 | 0.908 | 0.968 | 0.936 | 1.11 | 1.12 | 1.1 | 0.943 | 1.01 |
| NCI-H460 | 0.136 | 0.188 |  | 0.125 | 0.708 | 0.842 | 1.02 |  | 0.416 | 0.991 | 1.24 | 1.19 | 1.04 | 0.727 | 0.802 | 0.688 |  | 0.706 |
| NCI-H1993 | 0.58 | 0.67 | 0.633 | 0.825 | 0.904 | 0.951 | 0.916 | 0.952 | 0.948 | 1.12 | 1.05 | 0.922 | 0.69 | 0.714 | 0.667 | 0.523 | 0.673 | 0.739 |
| LOU-NH91 | 0.506 | 0.547 | 0.577 | 0.567 | 0.747 | 0.715 | 0.771 | 0.729 | 0.79 | 0.704 | 0.521 | 0.487 | 0.555 | 0.921 | 0.949 | 0.932 | 0.59 | 0.883 |
| LCLC-103H | 0.506 | 0.482 | 0.513 | 0.558 | 0.784 | 1.16 | 0.992 | 1.05 | 1.02 | 1.01 | 1.06 | 1.17 | 1.1 | 0.824 | 0.864 | 0.802 | 0.38 | 0.732 |
| 201T | 0.371 | 0.361 | 0.401 | 0.401 | 1 | 1 | 1.03 | 1.02 | 1.05 | 1.04 | 1.13 | 1.09 | 1.06 | 0.96 | 0.982 | 0.961 | 0.322 | 0.931 |
| EKVX | 0.354 | 0.397 | 0.451 | 0.283 | 0.867 | 0.683 | 0.779 | 0.994 | 1.09 | 0.955 | 0.934 | 1.08 | 0.984 | 0.793 | 0.671 | 0.725 |  | 0.767 |
| NCI-H1651 | 0.479 | 0.54 | 0.517 | 0.566 | 0.757 | 0.9 | 0.877 | 0.86 | 0.896 | 0.937 | 0.946 | 0.897 | 0.961 | 0.538 | 0.586 | 0.605 | 0.456 | 0.569 |
| LU99A | 0.404 | 0.422 | 0.432 | 0.249 | 0.49 | 0.507 | 0.656 | 0.534 | 0.507 | 1.17 | 1.11 | 1.16 | 0.965 | 0.419 | 0.514 | 0.441 | 0.39 | 0.508 |
| LC-2-ad | 0.518 | 0.528 | 0.508 | 0.461 | 0.437 | 0.514 | 0.583 | 0.469 | 0.362 | 0.975 | 1.03 | 1.02 | 0.947 | 0.637 | 0.705 | 0.65 | 0.4 | 0.682 |
| A-427 | 0.48 | 0.523 | 0.485 | 0.505 | 0.808 | 0.926 | 0.941 | 0.813 | 0.638 | 0.972 | 0.99 | 1.17 | 0.896 | 0.849 | 0.838 | 0.629 | 0.425 | 0.812 |
| NCI-H2009 | 0.237 | 0.273 | 0.191 | 0.226 | 0.984 | 1.02 | 0.994 | 0.603 | 1 | 0.944 | 1.02 | 1.04 | 0.923 | 0.693 | 0.726 | 0.621 | 0.202 | 0.685 |
